The nature of assay [1]: NMR diffusion experiments, binding affinity of cyclodextrin for N-octanoyl-homoserine lactone. The following applies: based on dissociation constants calculated from the diffusion data. The method, then:
To confirm that cyclodextrin was the active quenching agent in the model system, NMR diffusion experiments were performed.

The test system of assay [2] is Vibrio fischeri. The experiment in a line: Quantification of gene expression during luminescence. Format: cell-based.
Assay [3] relates to Vibrio fischeri. The experiment in a line: Growth studies: luminescence of Vibrio fischeri in vitro. Format: cell-based.

For `OC[C@H]1O[C@@H]2O[C@H]3[C@H](O)[C@@H](O)[C@@H](O[C@H]4[C@H](O)[C@@H](O)[C@@H](O[C@H]5[C@H](O)[C@@H](O)[C@@H](O[C@H]6[C@H](O)[C@@H](O)[C@@H](O[C@H]7[C@H](O)[C@@H](O)[C@@H](O[C@H]8[C@H](O)[C@@H](O)[C@@H](O[C@H]1[C@H](O)[C@H]2O)O[C@@H]8CO)O[C@@H]7CO)O[C@@H]6CO)O[C@@H]5CO)O[C@@H]4CO)O[C@@H]3CO` [cyclodextrin, β-Cyclodextrin], the “binding of N-octanoyl-homoserine lactone (complex formation)” value in assay [1] is “able to bind cyclodextrin and form a complex”. Besides, in assay [2], the “production of autoinducers and luciferase (gene expression)” value was “decrease in the production of autoinducers and luciferase”. The luminescence result in assay [3] is “reduce luminescence”.

The record behind these values is patent US10717788B2, “Cyclodextrin functionalized nanoparticles for quenching bacterial communications” (University of South Carolina, priority 2014, dated 2020).
